Where a name gives a salt, the structure may show the parent alone.
Legend:
[1] = system: Malassezia furfur 14521; experiment: Antifungal activity on M. furfur (resazurin viability, MIC and ΣFIC); format: cell-based; details: M. furfur 14521, YPD broth, 30° C., 72 hours, resazurin colour
Description: The samples as given in Table 1 were subjected to their anti fungal efficacy on M. furfur as described hereinafter.
The test organism used in the assay is Malassezia furfur 14521. The M. furfur were revived from glycerol stock in YPD agar plates (yeast extract peptone dextrose media) containing 1% corn oil. The composition of YPD is yeast extract:10 g/litre, dextrose 20 g/litre, Peptone 20 g/litre and agarose 0.15%. The plates were incubated at 30° C. for 72 hours for forming fungal colonies. A suspension culture of M. furfur was made using the colonies from plates in YPD broth. The optical density of the suspension culture was adjusted to 0.6 using spectrophotometer. This suspension was diluted in the ratio of 1:10 using YPD broth and 100 μl of this culture was added into each well of 96 well test plate. A stock solution of 40× strength of piroctone olamine was prepared for each of the concentrations tested eg for 0.0.001% test concentration of piroctone olamine a stock of 0.04% was prepared in DMSO (dimethyl sulphoxide). 5 μl of piroctone olamine was added to 100 μl of M. furfur culture. A stock solution of 4× strength of itaconic acid or sodium benzoate was prepared for each of the concentrations tested e.g. for 0.0.001% test concentration of itaconic acid or sodium benzote a stock of 0.004% was prepared in YPD broth. 50 μl of itaconic acid or sodium benzoate was added to 100 μl of M. furfur culture. In wells containing only one test ingredient, (itaconic acid or sodium benzoate only) 50 μl of test ingredient was added to 100 μl of fungal culture and then made up the volume to 200 μl with YPD broth. In wells containing only piroctone olamine 5 μl of piroctone olamine was added to 100 μl of fungal culture and then made up the volume to 200 μl with YPD broth. […] The anti-fungal efficacy of the ingredient or combination of ingredients is calculated based on the colour development. […]
The combinations of test ingredients with synergistic anti-fungal benefits were evaluated using ΣFIC method. The ΣFIC of the combinations were calculated using the following formula: […]

[2] = cited from earlier work

Minimum inhibitory concentration (MIC) [1]	Structure (SMILES)	solubility in 10% ethanol in water ([2]; 10% ethanol in water)	solubility in solution containing surfactants in water or in 1%-10% ethanol ([2]; solution containing surfactants in water or in 1%-10% ethanol)
0.5 wt %	C=C(CC(=O)OC)C(=O)OC [Dimethyl itaconate]	–	–
0.002 wt %	Cc1cc(CC(C)CC(C)(C)C)n(O)c(=O)c1 (centres unmarked) [Piroctone olamine, 1-Hydroxy-4-methyl-6-(2,4,4-trimethylpentyl)-2-(1H)pyridinone,2-aminoethanol salt]	soluble	soluble

Structure (SMILES)	Minimum inhibitory concentration (MIC) [1]	solubility in 10% ethanol in water ([2]; 10% ethanol in water)	solubility in solution containing surfactants in water or in 1%-10% ethanol ([2]; solution containing surfactants in water or in 1%-10% ethanol)
O=C([O-])c1ccccc1.[Na+] [Sodium benzoate]	0.5 wt %	–	–
